{"source": "paper PMC6104605", "about": "“Discovery of new chromen-4-one derivatives as telomerase inhibitors through regulating expression of dyskerin” (Journal of Enzyme Inhibition and Medicinal Chemistry, 2018)", "key": {"Bcl-2/Bax": {"tested_on": "Bcl-2/Bax", "assay": "Western blot, Bcl-2/Bax", "type": "cell-based, human", "details": "SGC-7901, 1, 2 and 4 μM, 48 h", "experimental": "An equivalent volume of 5 × SDS-sample buffer was added to cell lysates and boiled for 10 min. The supernatants were subjected to electrophoresis on SDS-PAGE gels and transferred to PVDF membrane by using a Bio-Rad apparatus. Membranes were blocked for 3 h at room temperature in TBST containing 5% non-fat dried milk and probed overnight at 4 °C with antibodies. CyclinD1 (abcam, ab134175, 1:10000), CDC25A (abcam, ab156574, 1:1000), CDC25C (abcam, ab32051, 1:1000), bcl-2 (abcam, ab32124,1:1000), bax (abcam, ab32503, 1:1000), PARP (abcam, ab191217, 1:1000), γH2AX (abcam, ab81299, 1:5000), dyskerin (abcam, ab156877, 1:1000), NHP2 (abcam, ab180498, 1:1000), NOP10 (abcam, ab133726, 1:1000) antibody was performed with rabbit primary antibody. Otherwise, β-actin (ZSGB-BIO, 1:1000) detection was performed with mouse primary antibody which was served as internal controls. Protein bands of β-actin was visualised using peroxidase-labeled goat anti-mouse and others were visualised using peroxidase-labeled goat anti-rabbit secondary antibody (1:5000 dilution, 1 h, room temperature), and the protein expression signals were detected by the BeyoECL Plus (Beyotime)."}, "[1]": {"assay": "Octanol water partition coefficient, shake flask", "type": "physicochemical", "details": "octanol/PBS pH 7.4, 37 °C", "experimental": "Octanole water partition coefficients was measured by the method of shake flask with slight modification. The aqueous phase was replaced by PBS (pH 7.4). First, the phase of octanol and the aqueous were saturated with each other. Then, the mixture containing title compounds was shaken at 37 °C. After 24 h, the mixture was centrifuged at 4000 rpm for 30 min, followed by the measured with ultraviolet spectrophotometer. At last, logP values were calculated."}, "telomerase": {"molecular_target": "T1, telomerase (Homo sapiens, UniProt O14746)", "T1 construct": "endogenous in cells; host or cells: SGC-7901", "T1 sequence (O14746 whole entry)": "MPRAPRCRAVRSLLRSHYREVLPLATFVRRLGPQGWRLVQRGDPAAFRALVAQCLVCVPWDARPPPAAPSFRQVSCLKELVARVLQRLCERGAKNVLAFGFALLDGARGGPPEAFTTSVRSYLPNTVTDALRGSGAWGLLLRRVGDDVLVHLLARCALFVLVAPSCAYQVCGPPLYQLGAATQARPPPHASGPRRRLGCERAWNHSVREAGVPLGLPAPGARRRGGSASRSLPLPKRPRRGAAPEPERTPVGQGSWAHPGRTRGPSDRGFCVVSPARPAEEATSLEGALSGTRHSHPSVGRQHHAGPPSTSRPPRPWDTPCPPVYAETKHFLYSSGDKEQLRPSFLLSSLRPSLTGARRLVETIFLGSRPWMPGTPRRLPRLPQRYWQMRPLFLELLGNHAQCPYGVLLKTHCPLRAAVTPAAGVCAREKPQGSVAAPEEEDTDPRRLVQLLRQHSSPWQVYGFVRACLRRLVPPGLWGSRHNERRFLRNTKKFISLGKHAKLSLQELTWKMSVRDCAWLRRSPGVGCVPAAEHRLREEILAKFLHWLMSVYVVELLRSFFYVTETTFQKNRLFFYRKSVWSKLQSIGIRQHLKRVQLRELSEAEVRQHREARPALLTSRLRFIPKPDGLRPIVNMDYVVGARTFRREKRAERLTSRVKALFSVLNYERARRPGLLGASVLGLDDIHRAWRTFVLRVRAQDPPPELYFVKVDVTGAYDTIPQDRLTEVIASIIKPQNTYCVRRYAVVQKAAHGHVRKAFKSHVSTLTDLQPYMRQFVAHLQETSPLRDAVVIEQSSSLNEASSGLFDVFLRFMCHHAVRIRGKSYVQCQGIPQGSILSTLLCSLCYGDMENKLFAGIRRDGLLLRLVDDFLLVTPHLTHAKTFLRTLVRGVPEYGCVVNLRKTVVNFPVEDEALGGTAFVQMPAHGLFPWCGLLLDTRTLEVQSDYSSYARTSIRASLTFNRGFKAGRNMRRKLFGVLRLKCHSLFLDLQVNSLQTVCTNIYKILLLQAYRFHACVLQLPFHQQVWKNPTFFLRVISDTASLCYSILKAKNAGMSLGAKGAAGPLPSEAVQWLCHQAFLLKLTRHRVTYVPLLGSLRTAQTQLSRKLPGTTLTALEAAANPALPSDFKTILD", "T1 sequence (O60832 whole entry partner)": "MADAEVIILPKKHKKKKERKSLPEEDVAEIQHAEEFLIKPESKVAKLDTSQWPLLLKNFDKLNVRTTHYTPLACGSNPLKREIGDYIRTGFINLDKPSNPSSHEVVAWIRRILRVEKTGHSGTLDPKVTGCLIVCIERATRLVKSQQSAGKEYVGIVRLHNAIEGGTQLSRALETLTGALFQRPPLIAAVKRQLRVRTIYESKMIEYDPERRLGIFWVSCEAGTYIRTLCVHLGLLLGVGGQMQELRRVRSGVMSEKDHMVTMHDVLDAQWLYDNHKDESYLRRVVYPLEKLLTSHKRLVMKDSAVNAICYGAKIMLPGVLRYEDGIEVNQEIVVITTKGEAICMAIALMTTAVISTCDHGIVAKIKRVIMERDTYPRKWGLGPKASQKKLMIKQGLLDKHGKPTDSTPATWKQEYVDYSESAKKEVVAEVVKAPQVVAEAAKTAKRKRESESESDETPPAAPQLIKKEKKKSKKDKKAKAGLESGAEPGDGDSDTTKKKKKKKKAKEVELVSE", "T1 sequence (Q9NX24 whole entry partner)": "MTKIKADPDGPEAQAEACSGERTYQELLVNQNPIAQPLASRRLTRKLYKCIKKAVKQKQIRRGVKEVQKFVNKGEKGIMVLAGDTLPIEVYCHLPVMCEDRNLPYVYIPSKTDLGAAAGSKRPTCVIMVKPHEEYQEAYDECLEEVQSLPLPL", "T1 sequence (Q9NPE3 whole entry partner)": "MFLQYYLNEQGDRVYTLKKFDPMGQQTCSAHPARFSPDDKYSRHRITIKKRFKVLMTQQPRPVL", "T1 sequence (Q9NY12 whole entry partner)": "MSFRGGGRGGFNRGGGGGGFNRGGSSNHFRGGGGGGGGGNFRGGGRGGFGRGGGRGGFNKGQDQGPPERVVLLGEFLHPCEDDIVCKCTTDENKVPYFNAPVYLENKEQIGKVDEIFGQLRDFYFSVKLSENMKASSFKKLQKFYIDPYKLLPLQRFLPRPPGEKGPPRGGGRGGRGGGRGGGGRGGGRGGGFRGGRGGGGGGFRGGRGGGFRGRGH", "assay": "Telomerase activity assay (TRAP-PCR-ELISA)", "type": "biochemical", "details": "SGC-7901 cells extracts, 24-h treatment, mean ± SD", "experimental": "Inhibit of telomerase activity was tested using the TRAP-PCR-ELISA assay. In detail, the SGC-7901 cells were firstly maintained in DMEM medium (GIBCO, New York) supplemented with 10% fetal bovineserum (GIBCO, NewYork), streptomycin (0.1 mg/mL) and penicillin (100 IU/mL) at 37 °C in a humidified atmosphere containing 5% CO2. After trypsinisation, 5 × 10^4 cultured cells in logarithmic growth were seeded into T25 flasks (Corning, New York) and cultured to allow to adherence. The cells were then incubated with Staurosporine (Santa Cruz, Santa Cruz) and the drugs with a series of concentration as 60, 20, 6.67, 2.22, 0.74, 0.25 and 0.082 l g/mL, respectively. After 24-h treatment, the cells were harvested by cell scraper orderly following by washed once with PBS. The cells were lysed in 150 µL RIPA cell lysis buffer (Santa Cruz, Santa Cruz) and incubated on ice for 30 min. The cellular supernatants were obtained via centrifugation at 12,000 g for 20 min at 4 °C and stored at −80 °C. The TRAP-PCR-ELISA assay was performed using a telomerase detection kit (Roche, Basel, Switzerland) according to the manufacturer’s protocol. In brief, 2 µL of cell extracts were mixed with 48 µL TRAP reaction mixtures. PCR was then initiated at 94 °C, 120 s for predenaturation and performed using 35 cycles each consisting of 94 °C for 30 s, 50 °C for 30 s, 72 °C for 90 s. Then 20 µL of PCR products were hybridised to a digoxigenin (DIG)-labeled telomeric repeat specific detection probe. And the PCR products were immobilised via the biotin-labeled primer to a streptavidin-coated microtiter plate subsequently. The immobilised DNA fragment were detected with a peroxidase-conjugated anti-DIG antibody and visualised following addition of the stop regent. The microtitre plate was assessed on TECAN Infinite M200 microplate reader (Mannedorf, Switzerland) at a wavelength of 490 nm, and the final value were presented as mean ± SD."}}, "data": [{"molecule": "COc1cc(OC)c2c(=O)c(OCCCCN3CCN(C(=O)c4ccncc4)CC3)c(-c3cc(OC)c(OC)c(OC)c3)oc2c1", "note": "[Compound 5i, 3-(4-(4-isonicotinoylpiperazin-1-yl)butoxy)-5,7-dimethoxy-2-(3,4,5-trimethoxyphenyl)-4H-chromen-4-one]", "values": [{"measurement": "proportion of Bcl-2/Bax (western blot)", "setting": "Bcl-2/Bax", "result": "reduced"}, {"measurement": "logP at 24 h", "setting": "[1]; octanol/PBS (pH 7.4), pH 7.4, shake flask, read-out: Log p (octanole water partition coefficient)", "result": 3.01}, {"measurement": "Log p (octanole water partition coefficient)", "setting": "[1]; shake flask, 24 h", "result": 2.81}, {"measurement": "IC50", "setting": "telomerase", "result": "890 ± 170", "unit": "nM"}]}]}
